Experimental data taken from ChEMBL document CHEMBL3352057, “Novel fluorinated pyrrolo[1,2-a]pyrazine-2,6-dione derivatives: synthesis and anticonvulsant evaluation in animal models of epilepsy” (Bioorg Med Chem, 2014).
Activity calls are given as the source filed them. No cut-off for these calls is given here.

Legend:
Mus musculus [1] = assay: Anticonvulsant activity in albino CF1 mouse assessed as protection against iv infusion metrazol-induced seizures measured as twitch at 24 mg/kg, ip (reference value: 28.2 mg/kg); format: functional
Rattus norvegicus [2] = assay: Neurotoxicity in MES Sprague-Dawley rat model at 30 mg/kg, ip measured after 0.5 hr; format: toxicity, organism-based; set-up: dose 30 mg/kg, route intraperitoneal; settings: in vivo
Rattus norvegicus [3] = assay: Anticonvulsant activity in ip dosed hippocampal kindled albino Sprague-Dawley rat seizure model assessed as time of rest; format: functional, Hippocampus
Mus musculus [4] = assay: Anticonvulsant activity in ip dosed albino CF1 mouse assessed as protection against iv infusion metrazol-induced seizures; format: functional, organism-based
[5] = Protective index, ratio of TD50 for neurotoxicity in ip dosed albino CF1 mouse to ED50 for anticonvulsant activity in ip dosed MES albino CF1 mouse model; format: toxicity, organism-based; settings: in vivo, read-out: Ratio TD50/ED50
Mus musculus [6] = assay: Anticonvulsant activity in albino CF1 mouse assessed as protection against iv infusion metrazol-induced seizures measured as time to clonus at 79 mg/kg, ip (reference value: 29.4 seconds); format: functional
Rattus norvegicus [7] = assay: Anticonvulsant activity in Sprague-Dawley rat assessed as protection against maximal electroshock-induced seizures at 30 mg/kg, po measured after 1 hr; format: functional, organism-based; set-up: dose 30 mg/kg
Mus musculus [8] = assay: Anticonvulsant activity in albino CF1 mouse assessed as protection against iv infusion metrazol-induced seizures measured as clonus at 24 mg/kg, ip (reference value: 31.1 mg/kg); format: functional
Rattus norvegicus [9] = assay: Neurotoxicity in MES Sprague-Dawley rat model at 30 mg/kg, po measured after 4 hrs; format: toxicity, organism-based; set-up: dose 30 mg/kg, route oral; settings: in vivo
Rattus norvegicus [10] = assay: Neurotoxicity in MES Sprague-Dawley rat model at 30 mg/kg, po measured after 0.5 hr; format: toxicity, organism-based; set-up: dose 30 mg/kg, route oral; settings: in vivo
Mus musculus [11] = assay: Anticonvulsant activity in albino CF1 mouse assessed as protection against 44 mA current-induced seizures at 100 mg/kg, ip measured after 4 hrs; format: functional, organism-based; set-up: dose 100 mg/kg
Mus musculus [12] = assay: Anticonvulsant activity in albino CF1 mouse assessed as protection against 32 mA current-induced seizures at 100 mg/kg, ip measured after 1 hr; format: functional, organism-based; set-up: dose 100 mg/kg
Rattus norvegicus [13] = assay: Anticonvulsant activity in Sprague-Dawley rat assessed as protection against maximal electroshock-induced seizures at 30 mg/kg, ip measured after 0.5 hr; format: functional, organism-based; set-up: dose 30 mg/kg
Rattus norvegicus [14] = assay: Anticonvulsant activity in Sprague-Dawley rat assessed as protection against maximal electroshock-induced seizures at 30 mg/kg, ip measured after 1 hr; format: functional, organism-based; set-up: dose 30 mg/kg
Rattus norvegicus [15] = assay: Neurotoxicity in MES Sprague-Dawley rat model at 30 mg/kg, ip measured after 4 hrs; format: toxicity, organism-based; set-up: dose 30 mg/kg, route intraperitoneal; settings: in vivo
Mus musculus [16] = assay: Anticonvulsant activity in ip dosed albino CF1 mouse assessed as protection against 44 mA current-induced seizures; format: functional
Mus musculus [17] = assay: Anticonvulsant activity in albino CF1 mouse assessed as protection against 44 mA current-induced seizures at 100 mg/kg, ip measured after 0.25 hr; format: functional, organism-based; set-up: dose 100 mg/kg
Rattus norvegicus [18] = assay: Neurotoxicity in MES Sprague-Dawley rat model at 30 mg/kg, po measured after 0.25 hr; format: toxicity, organism-based; set-up: dose 30 mg/kg, route oral; settings: in vivo
Mus musculus [19] = assay: Neurotoxicity in 44 mA current-induced seizure albino CF1 mouse model at 100 mg/kg, ip measured after 0.5 hr; format: toxicity, organism-based; set-up: dose 100 mg/kg, route intraperitoneal; settings: in vivo
Mus musculus [20] = assay: Neurotoxicity in albino CF1 mouse at 100 mg/kg, ip measured after 0.5 hr; format: toxicity, organism-based; set-up: dose 100 mg/kg, route intraperitoneal; settings: in vivo
Mus musculus [21] = assay: Anticonvulsant activity in albino CF1 mouse assessed as protection against 32 mA current-induced seizures at 100 mg/kg, ip measured after 0.5 hr; format: functional, organism-based; set-up: dose 100 mg/kg
Mus musculus [22] = assay: Neurotoxicity in 32 mA current-induced seizure albino CF1 mouse model at 100 mg/kg, ip measured after 2 hrs; format: toxicity, organism-based; set-up: dose 100 mg/kg, route intraperitoneal; settings: in vivo
Mus musculus [23] = assay: Anticonvulsant activity in albino CF1 mouse assessed as protection against iv infusion metrazol-induced seizures measured as time to twitch at 24 mg/kg, ip (reference value: 26.6 seconds); format: functional
Mus musculus [24] = assay: Anticonvulsant activity in albino CF1 mouse assessed as protection against maximal electroshock-induced seizures at 100 mg/kg, ip measured after 1 hr; format: functional, organism-based; set-up: dose 100 mg/kg
Mus musculus [25] = assay: Neurotoxicity in 32 mA current-induced seizure albino CF1 mouse model at 100 mg/kg, ip measured after 0.5 hr; format: toxicity, organism-based; set-up: dose 100 mg/kg, route intraperitoneal; settings: in vivo
Rattus norvegicus [26] = assay: Anticonvulsant activity in Sprague-Dawley rat assessed as protection against maximal electroshock-induced seizures at 30 mg/kg, ip measured after 4 hrs; format: functional, organism-based; set-up: dose 30 mg/kg
Mus musculus [27] = assay: Anticonvulsant activity in ip dosed albino CF1 mouse assessed as protection against 32 mA current-induced seizures; format: functional
Mus musculus [28] = assay: Anticonvulsant activity in ip dosed albino CF1 mouse assessed as protection against maximal electroshock-induced seizures; format: functional
[29] = Protective index, ratio of TD50 for neurotoxicity in ip dosed Sprague-Dawley rat to ED50 for anticonvulsant activity in ip dosed MES Sprague-Dawley rat model; format: toxicity, organism-based; settings: in vivo, read-out: Ratio TD50/ED50

O=C1NC(=O)[C@@H]2CCCN2[C@H]1c1cccc(OC(F)(F)F)c1
Activity (Mus musculus [1]): 35.2 mg/kg
Activity (Rattus norvegicus [2]): Non-toxic
Time (Rattus norvegicus [3]): 0.25 h
Activity (Mus musculus [4]): Dose-dependent effect
selectivity ratio [5]: 3.2
Time (Mus musculus [6]): 94.6 s
Activity (Rattus norvegicus [7]): inactive
Activity (Mus musculus [8]): 41.7 mg/kg
Activity (Rattus norvegicus [9]): Non-toxic
Activity (Rattus norvegicus [10]): Non-toxic
Activity (Mus musculus [11]): inactive
Activity (Mus musculus [12]): Active
Activity (Rattus norvegicus [13]): Active
Activity (Rattus norvegicus [14]): Active
Activity (Rattus norvegicus [15]): Non-toxic
ED50 (Mus musculus [16]): 171 µmol/kg
Activity (Mus musculus [17]): Active
Activity (Rattus norvegicus [18]): Non-toxic
Activity (Mus musculus [19]): Toxic
Activity (Mus musculus [20]): Toxic
Activity (Mus musculus [21]): Active
Activity (Mus musculus [22]): Non-toxic
Time (Mus musculus [23]): 33.3 s
Activity (Mus musculus [24]): Active
Activity (Mus musculus [25]): Non-toxic
Activity (Rattus norvegicus [26]): inactive
ED50 (Mus musculus [27]): 176 µmol/kg
ED50 (Mus musculus [28]): 76 µmol/kg
selectivity ratio [29]: 2.8
